# Test system: HIV-1 (H9IIIB strain)
# Assay: Cell-Based HIV Infection Assay Using a Reporter (MT4-GFP cells)
# Details: Human immunodeficiency virus 1, inflection point (IP) of viral growth inhibition; MT4-GFP cells infected with HIV-1 H9IIIB; 50% normal human serum; mean of at least two independent experiments; read-out: Cell Based IP (50% NHS)
# Procedure, shortened: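 MT4-GFP cells (HIV LTR-driven GFP) bulk-infected with HIV-1 H9IIIB at low MOI for 24 h, washed, then exposed to compounds in RPMI plus 50% normal human serum, 0.4% DMSO. Infected cells counted at 24 and 48 h; R0 = 48 h/24 h ratio, inhibition normalised to DMSO and triple-drug control; IP from 4-parameter fit.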
row,Structure (SMILES),EC50 [nM]
1,"COC(=O)N[C@H](C(=O)Nc1cccc(F)c1CC[C@H]1CN[C@@H]2CCCS(=O)(=O)N1C2)[C@@H](c1ccc(Cl)cc1)C1CCC(C(F)(F)F)OC1 (stereo partly drawn) [Example 273, methyl {(1S,2R)-2-(4-chlorophenyl)-1-[(2-{2-[(6R,9S)-2,2-dioxido-2-thia-1,7-diazabicyclo[4.3.1]dec-9-yl]ethyl}-3-fluorophenyl)carbamoyl]-2-[6-(trifluoromethyl)tetrahydro-2H-pyran-3-yl]ethyl}carbamate]",14
2,"N[C@H](C(=O)Nc1cccc(F)c1CC[C@H]1CNC[C@@H]2CCCS(=O)(=O)N1C2)[C@@H](c1ccc(Cl)cc1)C1CCOCC1 [Example 274, (2S,3R)-2-Amino-3-(4-chlorophenyl)-N-(2-(2-((6S,10S)-2,2-dioxido-2-thia-1,8-diazabicyclo[4.4.1]undecan-10-yl)ethyl)-3-fluorophenyl)-3-(tetrahydro-2H-pyran-4-yl)propanamide]",670
3,"CC1(C)C[C@H]([C@H](c2ccc(Cl)cc2)[C@H](N)C(=O)Nc2cccc(F)c2CC[C@H]2CN[C@@H]3CCS(=O)(=O)N2C3)CCO1 [Example 275, (2S,3R)-2-amino-3-(4-chlorophenyl)-3-((R)-2,2-dimethyltetrahydro-2H-pyran-4-yl)-N-(2-(2-((5R,8S)-2,2-dioxido-2-thia-1,6-diazabicyclo[3.3.1]nonan-8-yl)ethyl)-3-fluorophenyl)propanamide]",25
4,"N[C@H](C(=O)Nc1cccc(F)c1CC[C@H]1CN[C@@H]2CCCS(=O)(=O)N1CC2)[C@@H](c1ccc(F)cc1)c1cc(F)cc(F)c1 [Example 276, (2S,3S)-2-Amino-3-(3,5-difluorophenyl)-N-(2-(2-((6R,9S)-2,2-dioxido-2-thia-1,7-diazabicyclo[4.3.2]undecan-9-yl)ethyl)-3-fluorophenyl)-3-(4-fluorophenyl)propanamide]",6.1
5,"COC(=O)N[C@H](C(=O)Nc1cccc(F)c1CC[C@H]1CN[C@@H]2CCCCS(=O)(=O)N1C2)[C@@H](c1ccc(F)cc1)c1cc(F)cc(F)c1 [Example 277, Methyl ((1S,2S)-1-(3,5-difluorophenyl)-3-((2-(2-((7R,10S)-2,2-dioxido-2-thia-1,8-diazabicyclo[5.3.1]undecan-10-yl)ethyl)-3-fluorophenyl)amino)-1-(4-fluorophenyl)-3-oxopropan-2-yl)carbamate]",10

# From patent US10138255B2, “Piperazine derivatives as HIV protease inhibitors” (Merck Sharp & Dohme Corp., priority 2014, dated 2018)
